Measured values: US20260234124A1, “Substituted Pyrazolyl-Pyridinyl Compounds as Ligand Directed Degraders of IRAK3” (Celgene Corporation, priority 2022, published 2026)

Molecular target: T1, IRAK3-ePL (Homo sapiens, UniProt Q9Y616)
T1 construct: expressed in transfected cells; host or cells: 293T CRBN OE/GSPT1 G575N KI cells, lentiviral transduction, puromycin selection
Assay: IRAK3-ePL overexpressing degradation assay
Type: cell-based
Conditions: IRAK3-ePL Lenti-X 293T CRBN/GSPT1 G575N cells, overnight incubation, top dose 10 μM; for Dmax: HEK-293T, maximum percentage loss of target protein; for DC50: read-out: IRAK3 ePL degradation EC50
Procedure: Example B1. IRAK3-ePL Overexpressing Degradation Assay
Stable cell lines were generated by the following protocol. 3×10^5 Lenti-X 293T cells (Clonetech) were plated in 0.8 mL of media in a 12-well plate and incubated overnight at 37° C./5% CO2. Packaging plasmid (0.4 μg, pMD), envelope plasmid (0.4 μg, pSP), and lentiviral transfer IRAK3-ePL plasmid (0.8 μg, IRAK3 sequence NM_007199.3) were mixed in 0.1 mL of Opti-MEM and incubated for 5 min. Simultaneously, 2.4 μL of Lipofectamine 2000 (Invitrogen) was added to 0.1 mL of Opti-MEM (Gibco) and incubated for 5 min. The plasmid DNA and lipofectamine were combined and the mixture was allowed to incubate for 20 min. DNA:Lipofectamine Opti-MEM mixtures were then added to previously plated cells dropwise and the cells were incubated for ~16 h at 37° C./5% CO2. Following incubation, the media was removed and 1.2 mL of fresh media was added per well. Lenti-X 293T cells were incubated for ~30 h at 37° C./5% CO2. […] Following incubation, media was removed from the Lenti-X 293T wells and passed through a […]. Part of the viral supernatant was used to transduce cells and the rest was stored at −80° C. Viruses were then added individually (0.5 mL virus) to each well of the 293T^CRBN OE/GSPT1 G575N KI cells, followed by addition of polybrene (10 mg/mL Millipore) to each well at a final concentration of 5.0 μg/mL. Cells were incubated for ~24 h at 37° C./5% CO2. After aspirating media off plates, cells were washed with DPBS, trypsinized and plated in a 10 cm dish in 15 mL of media and 1 μg/mL puromycin. Following incubation of cells for ~72 h at 37° C./5% CO2, media was aspirated off plates, and cells were washed with DPBS and trypsinized. The cells were plated in a 15 cm dish in 40 mL of media with 1.0 μg/mL Puromycin (Gibco) and incubated for ~72 h at 37° C./5% CO2. Following incubation, media was removed and cells were washed with DPBS and trypsinized. The majority of cells were resuspended in Invitrogen freezing media and stored away (~6-8×10^6 cells/vial).
IRAK3-ePL cellular dose response curve degradation assays were performed by the following protocol. Compounds to be tested were dispensed into a white 384-well tissue-culture treated plate using an acoustic liquid handler. Dilutions were prepared based on a 25 μL assay volume in duplicate 10 point 3-fold serial dilutions starting with a 10 μM dose. Negative control wells were included, which only contain 0.2% DMSO to calculate 100% signal. Positive control wells containing 30 μM Ataluren (luciferase inhibitor) were included to calculate the background signal level. All wells were backfilled to a final DMSO concentration of 0.2% to ensure DMSO uniformity across wells. IRAK3-ePL expressing cells (IRAK3-ePL Lenti-X 293T^CRBN/GSPT1 G575N) were washed, trypsinized, counted, and resuspended in fresh DMEM (Gibco) to give a cell concentration of 200,000 cells/mL. 25 μL of cells (5,000 cells/well) were dispensed into the wells of the 384-well plate prespotted with compounds in the previous step and incubated overnight at 37° C./5% CO2. Following incubation, the 384-well plate was taken out of the incubator and left at room temperature for 30 min. InCELL hunter reagent was prepared according to manufacturer's instructions (EA reagent, lysis buffer, and substrate reagent in a 1:1:4 ratio, Cat #96-0002, DiscoverX), which was added to the 384-well plate 25 μL per well. Following the incubation of the plate for 1 h at room temperature, the luminescence signal was read using a ViewLux plate reader. Data was processed and analyzed in ActivityBase software. In short, the average luminescence values of the positive control wells were subtracted from the rest of the wells for background correction, and all luminescence values were normalized to the DMSO control wells. The average value of the DMSO control wells was set to equal 100% of the relative IRAK3-ePL protein levels. […]

SMILES	Dmax [%]	DC50 [µM]
C[C@@H](Oc1cc(-c2cnn(C3CCN(C4CCC5(CC4)CCN(C(=O)c4cccc6c4CN(C4CCC(=O)NC4=O)C6=O)CC5)CC3)c2)cnc1N)c1c(Cl)ccc(F)c1Cl (stereo partly drawn) [Compound 21, 3-(4-(9-(4-(4-(6-amino-5-((R)-1-(2,6-dichloro-3-fluorophenyl)ethoxy)pyridin-3-yl)-1H-pyrazol-1-yl)piperidin-1-yl)-3-azaspiro[5.5]undecane-3-carbonyl)-1-oxoisoindolin-2-yl)piperidine-2,6-dione]	59	0.105
C[C@@H](Oc1cc(-c2cnn(C3CCN(CCNC(=O)COc4cccc5c4C(=O)N(C4CCC(=O)NC4=O)C5=O)CC3)c2)cnc1N)c1c(Cl)ccc(F)c1Cl (stereo partly drawn) [Compound 8, N-(2-(4-(4-(6-amino-5-((R)-1-(2,6-dichloro-3-fluorophenyl)ethoxy)pyridin-3-yl)-1H-pyrazol-1-yl)piperidin-1-yl)ethyl)-2-((2-(2,6-dioxopiperidin-3-yl)-1,3-dioxoisoindolin-4-yl)oxy)acetamide]	12	> 10
C[C@@H](Oc1cc(-c2cnn(C3CCN(C4CCC5(CC4)CCN(C(=O)c4ccc6c(c4)C(=O)N(C4CCC(=O)NC4=O)C6)CC5)CC3)c2)cnc1N)c1c(Cl)ccc(F)c1Cl (stereo partly drawn) [Compound 19, 3-(6-(9-(4-(4-(6-amino-5-((R)-1-(2,6-dichloro-3-fluorophenyl)ethoxy)pyridin-3-yl)-1H-pyrazol-1-yl)piperidin-1-yl)-3-azaspiro[5.5]undecane-3-carbonyl)-1-oxoisoindolin-2-yl)piperidine-2,6-dione]	36	> 10
Cc1ncsc1-c1ccc(CNC(=O)[C@@H]2C[C@@H](O)CN2C(=O)[C@@H](NC(=O)CCCN2CCC(n3cc(-c4cnc(N)c(O[C@H](C)c5c(Cl)ccc(F)c5Cl)c4)cn3)CC2)C(C)(C)C)cc1 [Compound 1, (2S,4R)-1-((S)-2-(4-(4-(4-(6-amino-5-((R)-1-(2,6-dichloro-3-fluorophenyl)ethoxy)pyridin-3-yl)-1H-pyrazol-1-yl)piperidin-1-yl)butanamido)-3,3-dimethylbutanoyl)-4-hydroxy-N-(4-(4-methylthiazol-5-yl)benzyl)pyrrolidine-2-carboxamide]	8	> 10
C[C@@H](Oc1cc(-c2cnn(C3CCN(C4CCC5(CC4)CCN(C(=O)c4cccc(NC6CCC(=O)NC6=O)c4)CC5)CC3)c2)cnc1N)c1c(Cl)ccc(F)c1Cl (stereo partly drawn) [Compound 22, 3-((3-(9-(4-(4-(6-Amino-5-((R)-1-(2,6-dichloro-3-fluorophenyl)ethoxy)pyridin-3-yl)-1H-pyrazol-1-yl)piperidin-1-yl)-3-azaspiro[5.5]undecane-3-carbonyl)phenyl)amino)piperidine-2,6-dione]	78	0.066
C[C@@H](Oc1cc(-c2cnn(C3CCN(CCOCCOCCNC(=O)COc4ccc5c(c4)C(=O)N(C4CCC(=O)NC4=O)C5=O)CC3)c2)cnc1N)c1c(Cl)ccc(F)c1Cl (stereo partly drawn) [Compound 15, N-(2-(2-(2-(4-(4-(6-amino-5-((R)-1-(2,6-dichloro-3-fluorophenyl)ethoxy)pyridin-3-yl)-1H-pyrazol-1-yl)piperidin-1-yl)ethoxy)ethoxy)ethyl)-2-((2-(2,6-dioxopiperidin-3-yl)-1,3-dioxoisoindolin-5-yl)oxy)acetamide]	27	> 10
C[C@@H](Oc1cc(-c2cnn(C3CCN(C4CCC5(CC4)CCN(C(=O)c4ccc6c(c4)CN(C4CCC(=O)NC4=O)C6=O)CC5)CC3)c2)cnc1N)c1c(Cl)ccc(F)c1Cl (stereo partly drawn) [Compound 20, 3-(5-(9-(4-(4-(6-amino-5-((R)-1-(2,6-dichloro-3-fluorophenyl)ethoxy)pyridin-3-yl)-1H-pyrazol-1-yl)piperidin-1-yl)-3-azaspiro[5.5]undecane-3-carbonyl)-1-oxoisoindolin-2-yl)piperidine-2,6-dione]	74	0.055
C[C@@H](Oc1cc(-c2cnn(C3CCN(CCOCCOCCOCCOCCNC(=O)COc4ccc5c(c4)C(=O)N(C4CCC(=O)NC4=O)C5=O)CC3)c2)cnc1N)c1c(Cl)ccc(F)c1Cl (stereo partly drawn) [Compound 17, N-(14-(4-(4-(6-amino-5-((R)-1-(2,6-dichloro-3-fluorophenyl)ethoxy)pyridin-3-yl)-1H-pyrazol-1-yl)piperidin-1-yl)-3,6,9,12-tetraoxatetradecyl)-2-((2-(2,6-dioxopiperidin-3-yl)-1,3-dioxoisoindolin-5-yl)oxy)acetamide]	18	> 10
C[C@@H](Oc1cc(-c2cnn(C3CCN(CCOCCOCCOCCNC(=O)COc4ccc5c(c4)C(=O)N(C4CCC(=O)NC4=O)C5=O)CC3)c2)cnc1N)c1c(Cl)ccc(F)c1Cl (stereo partly drawn) [Compound 16, N-(2-(2-(2-(2-(4-(4-(6-amino-5-((R)-1-(2,6-dichloro-3-fluorophenyl)ethoxy)pyridin-3-yl)-1H-pyrazol-1-yl)piperidin-1-yl)ethoxy)ethoxy)ethoxy)ethyl)-2-((2-(2,6-dioxopiperidin-3-yl)-1,3-dioxoisoindolin-5-yl)oxy)acetamide]	19	> 10
C[C@@H](Oc1cc(-c2cnn(C3CCN(CCOCCOCCOCCNC(=O)COc4cccc5c4C(=O)N(C4CCC(=O)NC4=O)C5=O)CC3)c2)cnc1N)c1c(Cl)ccc(F)c1Cl (stereo partly drawn) [Compound 11, N-(2-(2-(2-(2-(4-(4-(6-amino-5-((R)-1-(2,6-dichloro-3-fluorophenyl)ethoxy)pyridin-3-yl)-1H-pyrazol-1-yl)piperidin-1-yl)ethoxy)ethoxy)ethoxy)ethyl)-2-((2-(2,6-dioxopiperidin-3-yl)-1,3-dioxoisoindolin-4-yl)oxy)acetamide]	12	> 10
C[C@@H](Oc1cc(-c2cnn(C3CCN(CCOCCOCCOCCOCCNC(=O)COc4cccc5c4C(=O)N(C4CCC(=O)NC4=O)C5=O)CC3)c2)cnc1N)c1c(Cl)ccc(F)c1Cl (stereo partly drawn) [Compound 12, N-(14-(4-(4-(6-amino-5-((R)-1-(2,6-dichloro-3-fluorophenyl)ethoxy)pyridin-3-yl)-1H-pyrazol-1-yl)piperidin-1-yl)-3,6,9,12-tetraoxatetradecyl)-2-((2-(2,6-dioxopiperidin-3-yl)-1,3-dioxoisoindolin-4-yl)oxy)acetamide]	30	> 10
C[C@@H](Oc1cc(-c2cnn(C3CCN(CCOCCNC(=O)COc4cccc5c4C(=O)N(C4CCC(=O)NC4=O)C5=O)CC3)c2)cnc1N)c1c(Cl)ccc(F)c1Cl (stereo partly drawn) [Compound 9, N-(2-(2-(4-(4-(6-amino-5-((R)-1-(2,6-dichloro-3-fluorophenyl)ethoxy)pyridin-3-yl)-1H-pyrazol-1-yl)piperidin-1-yl)ethoxy)ethyl)-2-((2-(2,6-dioxopiperidin-3-yl)-1,3-dioxoisoindolin-4-yl)oxy)acetamide]	12	> 10
C[C@@H](Oc1cc(-c2cnn(C3CCN(CCOCCNC(=O)COc4ccc5c(c4)C(=O)N(C4CCC(=O)NC4=O)C5=O)CC3)c2)cnc1N)c1c(Cl)ccc(F)c1Cl (stereo partly drawn) [Compound 14, N-(2-(2-(4-(4-(6-amino-5-((R)-1-(2,6-dichloro-3-fluorophenyl)ethoxy)pyridin-3-yl)-1H-pyrazol-1-yl)piperidin-1-yl)ethoxy)ethyl)-2-((2-(2,6-dioxopiperidin-3-yl)-1,3-dioxoisoindolin-5-yl)oxy)acetamide]	12	> 10
